What was measured:
human IDO protein = human IDO protein (Homo sapiens, UniProt P14902); test: IDO biochemical coupled assay (hIDO); details: 0.17 μM human IDO protein, biochemical coupled assay with formamidase
Text: (§1) Two different types of assay were employed: 1. A TDO and IDO biochemical coupled assay which utilised recombinantly produced and purified TDO and IDO enzymes in combination with the enzyme formamidase. This coupled enzyme system allowed conversion of N-formylkynurenine produced by TDO or IDO activity to kynurenine which was then quantified by fluorescence following addition of Erhlich's Reagent. 2. A cell-based assay for detecting the effect of test compounds on kynurenine production in two different cancer cell types. This assay utilised cancer cells which expressed either TDO or IDO and as such was used as a means of testing compound activity at these two enzymes in a cell-based context. The protocols for these are set out below.
0.17 μM of human IDO protein was pre-incubated for 10 min or 120 min at RT with test compounds in the presence of 50 mM KPO4, pH 7.0, 0.5 mM EDTA, 0.5 mM EGTA, 0.05% Triton X-100, 20 mM ascorbate, 500 U/ml catalase, 10 μM methylene blue at RT in a 384 well plate. 0.05 μg/μl kynurenine formamidase and 45 μM or 121 μM L-tryptophan (L-Trp) were added and the assays were incubated at RT for 17 min. Assays were stopped and the level of kynurenine was determined by incubation with Ehrlich's reagent to a final concentration of 1.33% at RT for 5 min. Fluorescence intensity was read at 475 nm/530 nm.

IDO (SKOV-3 cells) = target: T1, IDO (SKOV-3 cells) (Homo sapiens, UniProt P14902); test: IDO cell-based assay (SKOV-3, IFNγ-induced), kynurenine production; details: SKOV-3 ovary adenocarcinoma cells, IFNγ 500 ng/ml, 500 μM L-Trp, 48 h, kynurenine by absorbance at 490 nm; for IC50: read-out: IDO cellular assay (SKOV3) pIC50 (converted)
T1 construct: This assay utilised cancer cells which expressed either TDO or IDO; host or cells: SKOV-3 ovary adenocarcinoma cells, IFNγ-induced
T1 sequence (P14902 whole entry): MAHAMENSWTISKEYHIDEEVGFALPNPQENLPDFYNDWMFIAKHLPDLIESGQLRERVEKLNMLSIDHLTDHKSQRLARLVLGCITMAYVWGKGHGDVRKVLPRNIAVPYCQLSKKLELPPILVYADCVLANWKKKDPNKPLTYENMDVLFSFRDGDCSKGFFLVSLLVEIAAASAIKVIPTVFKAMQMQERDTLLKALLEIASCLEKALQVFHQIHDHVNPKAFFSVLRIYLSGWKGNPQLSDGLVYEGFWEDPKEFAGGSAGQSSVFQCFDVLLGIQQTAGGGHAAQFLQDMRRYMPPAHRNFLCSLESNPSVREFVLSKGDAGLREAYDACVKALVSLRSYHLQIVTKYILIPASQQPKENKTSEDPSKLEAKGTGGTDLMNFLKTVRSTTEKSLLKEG
Summary of the method: (§2)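 Kynurenine output was read at 490 nm after 5 min with 1% Ehrlich's reagent, using supernatants from 48 h, 37 °C cultures containing 500 μM L-Trp and test compound. TDO activity came from A172 cells. IDO activity came from SKOV-3 cells, whose expression was induced by adding 500 ng/ml IFNγ.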

human TDO protein = human TDO protein (Homo sapiens, UniProt P48775); test: TDO biochemical coupled assay (hTDO); details: 2 μM human TDO protein, biochemical coupled assay with formamidase; read-out: pIC50 in the hTDO test (converted)
Chain of human TDO protein (P48775 whole entry): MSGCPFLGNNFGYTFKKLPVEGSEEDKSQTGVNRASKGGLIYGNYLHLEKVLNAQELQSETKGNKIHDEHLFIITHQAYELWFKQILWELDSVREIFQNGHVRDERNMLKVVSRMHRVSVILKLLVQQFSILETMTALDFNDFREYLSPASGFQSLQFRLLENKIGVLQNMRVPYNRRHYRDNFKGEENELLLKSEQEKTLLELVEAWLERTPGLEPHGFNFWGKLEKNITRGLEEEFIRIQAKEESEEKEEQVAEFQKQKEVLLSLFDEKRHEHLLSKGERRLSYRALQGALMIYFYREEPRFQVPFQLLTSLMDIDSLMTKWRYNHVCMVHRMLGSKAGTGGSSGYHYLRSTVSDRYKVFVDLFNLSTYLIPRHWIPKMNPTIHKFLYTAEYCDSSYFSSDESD
Text: as §1
2 μM of human TDO protein was pre-incubated for 10 minutes at RT with test compounds in the presence of 50 mM KH2PO4, pH 7.0, 0.5 mM EDTA, 0.5 mM EGTA, 0.05% Triton X-100, 20 mM ascorbate, 500 U/ml catalase, 10 μM methylene blue at RT in a 384 well plate. 0.05 μg/μl kynurenine formamidase and 330 μM or 178 μM L-tryptophan were added and the assays were incubated at room temperature (RT) for 17 min. Assays were stopped and the level of kynurenine was determined by incubation with Ehrlich's reagent to a final concentration of 1.33% at RT for 5 min. Fluorescence intensity was read at 475 nm/530 nm.

TDO (A172 cells) = target: T2, TDO (A172 cells) (Homo sapiens, UniProt P48775); test: TDO cell-based assay (A172), kynurenine production; details: A172 human glioblastoma cells, 500 μM L-Trp, 48 h, kynurenine by absorbance at 490 nm; for IC50: read-out: TDO cellular assay (A172) pIC50 (converted)
T2 construct: This assay utilised cancer cells which expressed either TDO or IDO; host or cells: A172 human glioblastoma cells
T2 sequence (P48775 whole entry): as above
Summary of the method: as §2

Chain of human IDO protein (P14902 whole entry): as the sequence (P14902 whole entry) above

SMILES | IDO cellular assay (SKOV3) pIC50 (IDO (SKOV-3 cells)) | TDO cellular assay (A172) pIC50 (TDO (A172 cells)) | other results
O=C(Nc1cccnc1)c1cc2ccccc2[nH]1 [REF, reference compound] | – | – | IC50 (human IDO protein; read-out: pIC50 in the hIDO assay (converted)): > 102 µM; IC50 (IDO (SKOV-3 cells)): > 31.6 µM; IC50 (human TDO protein): > 102 µM; IC50 (TDO (A172 cells)): > 31.6 µM
CC(NC(=O)c1cc2cc(Cl)ccc2[nH]1)c1ccc(C(=O)N(C)C)cc1 (centres unmarked) [Compound 83] | +++ (+++ = pIC50 ≥5.50) | − (− = pIC50 <4.50) | pIC50 in the hIDO assay (human IDO protein): 5.24
C[C@@H](NC(=O)c1cc2cc(Cl)ccc2[nH]1)c1ccccc1 [Compound 48] | – | – | IC50 (IDO (SKOV-3 cells)): ≤ 3.16 µM; IC50 (TDO (A172 cells)): 3.16 to 10 µM
Cc1nnc(C2(NC(=O)c3cc4cc(Cl)ccc4[nH]3)CC2)[nH]1 [Compound 233] | + (+ = pIC50 4.50-<5.00) | − (− = pIC50 <4.50) | –
Cn1cc(C2(NC(=O)c3cc4cc(Cl)ccc4[nH]3)CCCC2)cn1 [Compound 250] | +++ (+++ = pIC50 ≥5.50) | − (− = pIC50 <4.50) | –
CC(NC(=O)c1cc2cc(Cl)ccc2[nH]1)C1CN(S(C)(=O)=O)C1 (centres unmarked) [Compound 152] | ++ (++ = pIC50 5.00-<5.50) | − (− = pIC50 <4.50) | –
CC(C)Oc1ccc2[nH]c(C(=O)NC3(c4ccccc4)CC3)cc2c1 [Compound 261] | +++ (+++ = pIC50 ≥5.50) | − (− = pIC50 <4.50) | –
Cn1cc(C2(NC(=O)c3cc4cc(Br)ccc4[nH]3)COC2)cn1 [Compound 238] | +++ (+++ = pIC50 ≥5.50) | − (− = pIC50 <4.50) | –
Cn1cc(C2(NC(=O)c3cc4cc(Br)ccc4[nH]3)CCC2)cn1 [Compound 268] | +++ (+++ = pIC50 ≥5.50) | − (− = pIC50 <4.50) | –
O=C(NC1(c2ccccc2)CC1)c1cc2cc(C(F)(F)F)ccc2[nH]1 [Compound 156] | +++ (+++ = pIC50 ≥5.50) | − (− = pIC50 <4.50) | –
COc1ccc2[nH]c(C(=O)NC3(c4ccccc4)CC3)cc2c1 [Compound 182] | +++ (+++ = pIC50 ≥5.50) | − (− = pIC50 <4.50) | –
C[C@@H](NC(=O)c1nc2ccccc2o1)c1ccccc1 [Compound 73] | + (+ = pIC50 4.50-<5.00) | − (− = pIC50 <4.50) | –
CN(C)c1ncc2c(n1)CCC[C@H]2NC(=O)c1cc2cc(F)ccc2[nH]1 [Compound 8] | + (+ = pIC50 4.50-<5.00) | − (− = pIC50 <4.50) | –
Cc1nc(C(C)NC(=O)c2cc3cc(C#N)ccc3[nH]2)no1 (centres unmarked) [Compound 216] | + (+ = pIC50 4.50-<5.00) | − (− = pIC50 <4.50) | –
COc1ccc(-c2noc(C(C)NC(=O)c3cc4cc(Cl)ccc4[nH]3)n2)cc1OC (centres unmarked) [Compound 131] | +++ (+++ = pIC50 ≥5.50) | − (− = pIC50 <4.50) | –
C[C@@H](NC(=O)c1cc2c([nH]1)CCCC2)c1ccccc1 [Compound 53] | + (+ = pIC50 4.50-<5.00) | − (− = pIC50 <4.50) | –
CC(NC(=O)c1cc2cc(Cl)ccc2[nH]1)c1noc(-c2ccccc2)n1 (centres unmarked) [Compound 134] | +++ (+++ = pIC50 ≥5.50) | − (− = pIC50 <4.50) | –

SMILES | IDO cellular assay (SKOV3) pIC50 (IDO (SKOV-3 cells)) | TDO cellular assay (A172) pIC50 (TDO (A172 cells)) | other results
CC(NC(=O)c1cc2cnccc2[nH]1)c1ccccc1 (centres unmarked) [Compound 79] | + (+ = pIC50 4.50-<5.00) | − (− = pIC50 <4.50) | –
Cc1cc(C(C)NC(=O)c2cc3cc(Cl)ccc3[nH]2)no1 (centres unmarked) [Compound 234] | +++ (+++ = pIC50 ≥5.50) | ++ (++ = pIC50 5.00-<5.50) | –
CCC(NC(=O)c1cc2cc(Cl)ccc2[nH]1)c1ccccc1 (centres unmarked) [Compound 114] | +++ (+++ = pIC50 ≥5.50) | − (− = pIC50 <4.50) | –
O=C(NC1CCOc2ccccc21)c1cc2ccccc2[nH]1 (centres unmarked) [Compound 74] | + (+ = pIC50 4.50-<5.00) | − (− = pIC50 <4.50) | –
COc1ccc2[nH]c(C(=O)N[C@H](C)c3ccccc3)cc2c1 [Compound 175] | +++ (+++ = pIC50 ≥5.50) | − (− = pIC50 <4.50) | –
CC(NC(=O)c1cc2cc(Cl)ccc2[nH]1)C1CCCC1 (centres unmarked) [Compound 98] | +++ (+++ = pIC50 ≥5.50) | − (− = pIC50 <4.50) | –
O=C(NC(c1ccccc1)C1CC1)c1cc2cc(Cl)ccc2[nH]1 (centres unmarked) [Compound 99] | +++ (+++ = pIC50 ≥5.50) | + (+ = pIC50 4.50-<5.00) | –
Cc1cc(C(C)NC(=O)c2cc3cc(C#N)ccc3[nH]2)no1 (centres unmarked) [Compound 235] | +++ (+++ = pIC50 ≥5.50) | − (− = pIC50 <4.50) | –
O=C(NCc1ccccc1)c1cc2ccccc2[nH]1 [Compound 10] | − (− = pIC50 <4.50) | + (+ = pIC50 4.50-<5.00) | –
N#Cc1ccc2[nH]c(C(=O)NC3(c4ccc(F)cc4)CC3)cc2c1 [Compound 137] | +++ (+++ = pIC50 ≥5.50) | − (− = pIC50 <4.50) | –
Cc1nc(C(C)NC(=O)c2cc3cc(Cl)ccc3[nH]2)co1 (centres unmarked) [Compound 200] | +++ (+++ = pIC50 ≥5.50) | − (− = pIC50 <4.50) | –
Cn1cc(C2(NC(=O)c3cc4cc(Cl)ccc4[nH]3)COC2)cn1 [Compound 213] | +++ (+++ = pIC50 ≥5.50) | − (− = pIC50 <4.50) | –
O=C(NC1Cc2ccccc2C1)c1cc2cc(Cl)ccc2[nH]1 [Compound 116] | − (− = pIC50 <4.50) | ++ (++ = pIC50 5.00-<5.50) | –
C[C@H](NS(=O)(=O)c1cc2cc(F)ccc2[nH]1)c1ccccc1 [Compound 123] | ++ (++ = pIC50 5.00-<5.50) | + (+ = pIC50 4.50-<5.00) | –
CC(NC(=O)c1cc2cc(Cl)ccc2[nH]1)c1ccc(N(C)C)cc1 (centres unmarked) [Compound 87] | +++ (+++ = pIC50 ≥5.50) | + (+ = pIC50 4.50-<5.00) | –
Cn1cc(C2(NC(=O)c3cc4cc(C#N)ccc4[nH]3)COC2)cn1 [Compound 236] | +++ (+++ = pIC50 ≥5.50) | − (− = pIC50 <4.50) | –
O=C(Nc1cccc2ccccc12)c1cc2ccc(F)cc2[nH]1 [Compound 65] | +++ (+++ = pIC50 ≥5.50) | − (− = pIC50 <4.50) | –
